Test results from PMC12089509, “NorA Efflux Pump Inhibitors: Expanding SAR Knowledge of Pyrazolo[4,3‐c][1,2]benzothiazine 5,5‐Dioxide Derivatives” (Archiv Der Pharmazie, 2025).
≈ marks a conversion by molar mass, not a printed value. Where two headings read alike, the source gives them in different places.

How the values were obtained:
[1] = tested on: S. aureus SA-K1902 (norA-); test: Checkerboard assay EPI/CPX against SA-K1902; type: cell-based, Staphylococcus aureus
Protocol: (§1) Checkerboard assays were carried out using SA‐K1902 and SA‐K2378 strains according to standard procedures.

[2] = tested on: Staphylococcus aureus SA-1199B; type: cell-based
Source text: For purposes of comparison, compound 1 was included as a reference.

[3] = tested on: S. aureus SA-K2378 (norA ++); test: Checkerboard assay EPI/CPX against SA-K2378; type: cell-based, Staphylococcus aureus
Protocol: (§2) Conversely, interesting results were obtained against SA‐K2378, which overexpresses the norA gene (Table 2). […] This corroborates the hypothesis that their activity is strictly related to NorA EP inhibition.
as §1

[4] = tested on: S. aureus SA-K2378 (norA ++); test: MIC evaluation against SA-K2378; type: cell-based, Staphylococcus aureus; details: Staphylococcus aureus
Source text: as §2
(§3) In this study, the S. aureus strains SA‐1199B (overexpressing norA) and its isogenic parent SA‐1199 (wild type), the pair SA‐K1902 (norA‐depleted) and SA‐K2378 (complemented with a pCU1 plasmid harboring the norA promoting and coding region from SA‐1199B), were used to test EPI activity as described in a previous study. Furthermore, the S. aureus ATCC 29213 was used as the reference strain in MIC determination experiments.

[5] = tested on: Staphylococcus aureus SA-K2378 biofilm; type: cell-based; details: EPI at 0.2 µg/mL combined with CPX, SA-K2378
Source text: The formation of biofilms is a significant contributor to the development of AMR [1, 26, 27]. This is due to the fact that biofilms provide a protective environment for bacteria, thereby rendering them more resilient to the effects of common antibacterial agents. Over the years, several investigations have been conducted to study the role of EPs in the various stages of microbial biofilm formation. However, a definitive answer regarding the potential role of EPs in this microbial pathway remains elusive. While some studies have reported a negative effect of certain EPs on biofilm formation, others have highlighted the promising role of EPIs in limiting biofilm formation and enhancing the efficacy of antibiotics under biofilm conditions.
The biofilm production by SA‐K1902 and SA‐K2378 strains was analyzed in flat 96‐well microtiter plates as previously described, with some modifications. […] The microplates were incubated at 37°C for 24 h in static conditions. After incubation, the biofilms were washed three times with distilled water, dried at 60°C for 1 h, and stained with 0,1% crystal violet for 10 min. After staining, the crystal violet was removed and the wells were washed three times with water, dried at 37°C for 30 min, and the bound crystal violet was solubilized with 96% ethanol in shaking conditions. At the end of the destaining, the absorbance (570 nm) of the solutions in each well was measured using the FLUOstar Omega plate reader (BMG‐LABTECH, Germany) to quantify the biofilm produced in each condition compared with the control (biofilm produced by the strain without any compound/antibiotic). Biofilm assays were performed in triplicate for each condition.

[6] = tested on: Staphylococcus aureus SA-1199B; test: MIC determination (broth microdilution) against SA-1199B; type: cell-based; details: SA1199B
Source text: as §3

[7] = tested on: S. aureus SA-K1902 (norA-); test: MIC evaluation against SA-K1902; type: cell-based, Staphylococcus aureus; details: Staphylococcus aureus
Source text: as §2, §3

[8] = tested on: S. aureus SA-1199 (wild type); test: MIC determination against wild-type SA-1199; type: cell-based; details: Staphylococcus aureus, compound alone
Source text: (§4) This finding aligns with their mechanism of action, which involves the inhibition of NorA, which is only basally expressed in the wild‐type SA‐1199 strain.

[9] = molecular target: T1, S. aureus NorA efflux pump (SA-1199B strain, overexpresses the norA gene) (Staphylococcus aureus, UniProt P0A0J7); test: EtBr efflux inhibition assay; type: cell-based
T1 construct: endogenous in cells; host or cells: S. aureus SA-1199B (overexpresses norA; isogenic parent SA-1199)
T1 sequence (P0A0J7 whole entry): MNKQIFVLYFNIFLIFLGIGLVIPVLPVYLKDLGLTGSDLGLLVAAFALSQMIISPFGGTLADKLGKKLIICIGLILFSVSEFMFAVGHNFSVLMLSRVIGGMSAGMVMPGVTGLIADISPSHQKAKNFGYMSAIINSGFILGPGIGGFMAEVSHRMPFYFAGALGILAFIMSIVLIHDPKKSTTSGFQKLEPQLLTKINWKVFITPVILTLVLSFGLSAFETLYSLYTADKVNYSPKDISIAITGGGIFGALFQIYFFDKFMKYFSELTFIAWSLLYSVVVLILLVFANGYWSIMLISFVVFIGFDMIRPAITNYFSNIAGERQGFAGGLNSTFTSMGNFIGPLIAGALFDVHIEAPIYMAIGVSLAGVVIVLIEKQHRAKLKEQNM
Protocol: EtBr efflux inhibition assays were conducted using the S. aureus SA‐1199B strain, which overexpresses the norA gene and has an A116E GrlA substitution. Each compound was tested at 50 µM (see Figure 2). The starting hit compound 1 was used as the internal standard for comparison with the previously reported data.
The cells were grown overnight in cation‐supplemented Mueller–Hinton broth (CAMHB) without any additives at 35°C. The organisms were subsequently diluted into CAMHB to obtain an optical density at 600 nm (OD600) of 0.7–0.8. Subsequently, the cells were pelleted and resuspended at an OD600 of 0.8 in 0.5 mL aliquots of CAMHB containing EtBr and carbonyl cyanide m‐chlorophenylhydrazone (CCCP) to “load” the cells with EtBr (final concentrations of 25 μM for EtBr and 100 μM for CCCP). Following 20 min of incubation at room temperature, the cells were pelleted and resuspended in 1 mL of fresh CAMHB. Immediately thereafter, 200 μL aliquots were transferred into the wells of white 96‐well plates, which either lacked or contained 50 or 10 μM of each test compound. Fluorescence was monitored continuously using a microplate reader (Infinite M200 Pro, TECAN) at excitation and emission wavelengths of 485 and 645 nm, respectively, for a period of 5 min. The experiments were conducted in triplicate, with two technical replicates per biological replicate. The efflux activity of the SA‐1199B strain was expressed as a percentage of fluorescence decrease over a 5‐min time course. The inhibition of this efflux by the test compounds was determined using the following equation: ([efflux in the absence] ‐ [efflux in the presence of test [compound])/[efflux in the absence of test compound] × 100, which yielded the percent efflux inhibition observed.
^a Experiments were performed in triplicate with two technical replicates per biological replicate. Efflux activity of SA-1199B was expressed as percent fluorescence decrease over a 5 min time course. Inhibition of this efflux by test compounds was determined using the equation [efflux in the absence] − [efflux in the presence of test [compound]/[efflux in the absence of test compound] × 100, giving the percent efflux inhibition observed.

[10] = tested on: S. aureus SA-1199 (wild type); test: Synergistic assay with CPX against wild-type SA-1199; type: cell-based, Staphylococcus aureus; details: EPI at 3.13 µg/mL with CPX
Source text: as §4

SMILES: CN1c2c(-c3ccc(F)cc3)nn(C)c2-c2ccc(OCCN3CCOCC3)cc2S1(=O)=O [Compound 19, 3‐(4‐Fluorophenyl)‐1,4‐dimethyl‐7‐(2‐morpholin‐4‐ylethoxy)‐1,4‐dihydropyrazolo[4,3‐c][1,2]benzothiazine 5,5‐dioxide]
- CPX MIC ([1]; EPI at 0.2 µg/mL): 0.08 µg/mL
- N° CPX MIC reduction ([1]; EPI at 0.2 µg/mL): 2
- CPX MIC ([1]; EPI at 0.4 µg/mL): 0.08 µg/mL
- N° CPX MIC reduction ([1]; EPI at 0.4 µg/mL): 2
- CPX MIC ([1]; EPI at 0.8 µg/mL): 0.08 µg/mL
- N° CPX MIC reduction ([1]; EPI at 0.8 µg/mL): 2
- CPX MIC ([1]; EPI at 1.6 µg/mL): 0.08 µg/mL
- N° CPX MIC reduction ([1]; EPI at 1.6 µg/mL): 2
- CPX MIC ([1]; EPI at 3.13 µg/mL): 0.08 µg/mL
- N° CPX MIC reduction ([1]; EPI at 3.13 µg/mL): 2
- CPX MIC ([1]; EPI at 6.25 µg/mL): 0.08 µg/mL
- N° CPX MIC reduction ([1]; EPI at 6.25 µg/mL): 2
- CPX MIC ([1]; EPI at 12.5 µg/mL): 0.15 µg/mL
- N° CPX MIC reduction ([1]; EPI at 12.5 µg/mL): 0
- N° fold CPX MIC reduction ([2]; EPI at 3.12 µg/mL): 2 fold
- N° fold CPX MIC reduction ([2]; EPI at 12.5 µg/mL): 4 fold
- CPX MIC ([3]; EPI at 0.2 µg/mL): 0.3 µg/mL
- N° CPX MIC reduction ([3]; EPI at 0.2 µg/mL): 4
- CPX MIC ([3]; EPI at 0.4 µg/mL): 0.3 µg/mL
- N° CPX MIC reduction ([3]; EPI at 0.4 µg/mL): 4
- CPX MIC ([3]; EPI at 0.8 µg/mL): 0.3 µg/mL
- N° CPX MIC reduction ([3]; EPI at 0.8 µg/mL): 4
- CPX MIC ([3]; EPI at 1.6 µg/mL): 0.3 µg/mL
- N° CPX MIC reduction ([3]; EPI at 1.6 µg/mL): 4
- CPX MIC ([3]; EPI at 3.13 µg/mL): 0.3 µg/mL
- N° CPX MIC reduction ([3]; EPI at 3.13 µg/mL): 4
- CPX MIC ([3]; EPI at 6.25 µg/mL): 0.16 µg/mL
- N° CPX MIC reduction ([3]; EPI at 6.25 µg/mL): 8
- MIC [4]: 25 µg/mL (≈ 52.9 µM)
- effect on biofilm formation in combination with CPX [5]: no positive effects
- MIC [6]: > 50 µg/mL
- MIC [7]: > 50 µg/mL
- MIC [8]: > 50 µg/mL
- inhibition at 10 µM ([9]; read-out: EtBr efflux inhibition (%), compound at 10 µM, SA-1199B): 34%
- inhibition at 50 µM ([9]; read-out: EtBr efflux inhibition (%), compound at 50 µM, SA-1199B): > 70%
- synergistic effect with CPX [10]: did not show any synergistic effect
